Assay results reported in patent publication US20050089535A1, “Delivery of biologically active agents” (priority 2002, published 2005).

Assay: Use of the Weston needleless injector to evaluate penetration of the cervix (dye track)
Set-up: species or system human
Settings: 0.2 ml of 1 mg/ml methylene blue in phosphate buffered saline, Weston needleless injector held against ectocervix, ex vivo cervix from non-pregnant women
Protocol: A Weston needleless injector was loaded with 0.2 ml of dye (1 mg/ml of methylene blue {Sigma} in phosphate buffered saline). Whole human cervix was obtained at hysterectomy from non-pregnant women of reproductive age. The cervix was tested within 30 minutes of removal from the patient. The needleless injector device was held against the ectocervix region. Increased pressure on the needleless injector activated the device. Two injections were performed for each specimen.
The cervix was dissected along the track of the injection (FIG. 2) and the length of the dye track was measured. In four experiments the length of the track was a mean of 6.1 mm (standard error of the mean=1.9 mm). The mean lateral spread (any signs of the blue dye) was 8.8 mm.

## CN(C)c1ccc2nc3ccc(=[N+](C)C)cc-3sc2c1 [dye, methylene blue]
  mean lateral spread (any signs of the blue dye): 8.8 mm
Four experiments, SEM 1.9 mm
  length of the dye track (mean): 6.1 mm
